US5958881A, “Composition containing VIP for injection and a method of enhancing visualization of tissues during medical procedures” (priority 1992, dated 1999)
Read-outs that look alike come from different tables or passages of the source.

Legend:
[1] = system: gastrointestinal motility; settings: controlled studies; cited from earlier work
[2] = in vivo; cited from earlier work
[3] = system: antroduodenal activity; settings: 1 mg IV followed by 2 mg IV over 2 hours; cited from earlier work
[4] = system: gastroduodenal motility; settings: cited from earlier work
[5] = system: opossum duodenum; settings: cited from earlier work
[6] = dose dependent; cited from earlier work
[7] = Protocol: During the period of observation, vital signs (blood pressure and pulse) and symptoms were continuously recorded. The protocol was such that if the blood pressure dropped by more than 20 mm Hg systolic or diastolic or the pulse increased by more than 30 beats per minute for 2 minutes, intravenous saline was to be administered and the study terminated.

Molecule: CN1[C@@H]2CC[C@H]1C[C@@H](OC(=O)C(CO)c1ccccc1)C2 (some centres unmarked) [atropine]
- improvement in patient tolerance or facilitation of endoscopy [1]: failed to demonstrate any beneficial effects
- cardiac arrhythmias [2]: increased risk
- undesirable side effects [2]: blurred vision, headache, and urinary retention

Molecule: glucagon
- cycle length and time between contractile activity in the duodenum [3]: significantly increased
- mean pressure period [3]: decreased
- gastroduodenal motility ([4]; dose-dependent): variable reduction
- minimally effective dose ([4]; reduction in gastroduodenal motility): 0.5 mg
- effect on duodenum muscle [5]: stimulated relaxation
- dose at which nausea and vomiting can appear [6]: 1 mg

Molecule: CC[C@H](C)[C@H](NC(=O)[C@H](CO)NC(=O)[C@H](CC(N)=O)NC(=O)[C@H](CC(C)C)NC(=O)[C@H](Cc1ccc(O)cc1)NC(=O)[C@H](CCCCN)NC(=O)[C@H](CCCCN)NC(=O)[C@@H](NC(=O)[C@H](C)NC(=O)[C@H](CCSC)NC(=O)[C@H](CCC(N)=O)NC(=O)[C@H](CCCCN)NC(=O)[C@H](CCCN=C(N)N)NC(=O)[C@H](CC(C)C)NC(=O)[C@H](CCCN=C(N)N)NC(=O)[C@@H](NC(=O)[C@H](Cc1ccc(O)cc1)NC(=O)[C@H](CC(N)=O)NC(=O)[C@H](CC(=O)O)NC(=O)[C@@H](NC(=O)[C@H](Cc1ccccc1)NC(=O)[C@@H](NC(=O)[C@H](C)NC(=O)[C@H](CC(=O)O)NC(=O)[C@H](CO)NC(=O)[C@@H](N)Cc1c[nH]cn1)C(C)C)[C@@H](C)O)[C@@H](C)O)C(C)C)C(=O)N[C@@H](CC(C)C)C(=O)N[C@@H](CC(N)=O)C(N)=O [VIP, vasoactive intestinal peptide]
- need to terminate the study ([7]; criterion: blood pressure drop >20 mm Hg or pulse increase >30 beats per minute for 2 minutes): none of the three patients
- effects on blood pressure and pulse ([7]; first patient, higher dose level (20 ng/kg)): not seen
- effect on blood pressure and pulse ([7]; first patient, initial dose of 5 ng VIP per kg): slight decrease in systolic pressure and increase in pulse
- effect on blood pressure ([7]; gastroparetic dose): without a significant effect
- side effects of nausea and vomiting ([7]; method of the invention): free of the negative side effects of nausea and vomiting
- change in blood pressure or pulse ([7]; second patient, any of the dosages tested (5, 20, 100 ng/kg)): no significant change
- change in blood pressure or pulse ([7]; third patient, any dose of VIP administered): no significant change
- adverse reactions such as nausea or vomiting ([7]; three patients, 5-300 ng/kg IV): None of the three patients
